Like-named read-outs stand apart in the source and are kept apart here.
Columns and labels:
[1] = target: T1, smooth muscle strips of the urinary bladder (Cavia porcellus, UniProt H0W1Z3); test: Functional in vitro study: antimuscarinic activity (antagonism of carbachol contraction) on urinary bladder strips; design: species or system guinea pig
T1 construct: Smooth muscle strips of the urinary bladder and ileum (longitudinal muscle only) were dissected; from tissue; host or cells: guinea pig urinary bladder smooth muscle strips
T1 sequence (H0W1Z3 1-590): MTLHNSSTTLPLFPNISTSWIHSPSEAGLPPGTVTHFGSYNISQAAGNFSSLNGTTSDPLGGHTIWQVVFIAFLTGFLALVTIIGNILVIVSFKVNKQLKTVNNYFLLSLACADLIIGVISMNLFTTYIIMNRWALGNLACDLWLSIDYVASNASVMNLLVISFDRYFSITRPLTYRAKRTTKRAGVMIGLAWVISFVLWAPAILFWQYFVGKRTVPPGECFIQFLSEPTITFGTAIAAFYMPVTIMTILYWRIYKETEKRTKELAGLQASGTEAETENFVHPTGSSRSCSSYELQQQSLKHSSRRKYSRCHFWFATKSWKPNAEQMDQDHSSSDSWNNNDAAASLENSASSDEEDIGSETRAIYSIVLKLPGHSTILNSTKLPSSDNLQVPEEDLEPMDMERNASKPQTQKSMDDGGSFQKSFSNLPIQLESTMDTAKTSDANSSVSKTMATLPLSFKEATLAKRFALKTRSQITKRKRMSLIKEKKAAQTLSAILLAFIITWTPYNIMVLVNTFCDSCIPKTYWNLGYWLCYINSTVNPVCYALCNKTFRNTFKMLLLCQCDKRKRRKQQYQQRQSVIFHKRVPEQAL
Procedure: (§1) Male guinea pigs, weighing about 300 g, were killed by a blow on the neck and exsanguinated. Smooth muscle strips of the urinary bladder and ileum (longitudinal muscle only) were dissected in a Krebs-Henseleit solution (pH 7.4). The strip preparations were then vertically mounted between two hooks in thermostatically controlled (37° C.) organ baths (5 mL). One of the hooks was adjustable and connected to a force transducer (FT 03, Grass Instruments). The Krebs-Henseleit solution was continuously bubbled with carbogen gas (93.5% O2 /6.5% CO2) to maintain pH at 7.4. Isometric tension was recorded by a Grass Polygraph (model 79D). A resting tension of approximately 5 mN was initially applied on each muscle strip and the preparations were allowed to stabilize for at least 45 min. The resting tension was repeatedly adjusted and the preparations were washed several times during the stabilization period.
(§2) The urinary bladder strips were used for evaluation of antimuscarinic activity and the ileal preparations for studies of muscarinic activity. Carbachol (carbamylcholine chloride) was used as the standard agonist. Concentration-response curves to agonists were generated either by the cumulative dose-response technique (bladder strip) or by the addition of single agonist concentrations (ileal preparations). In the latter case, the preparations were washed and allowed to rest between each concentration of agonist. EC50 values were graphically determined.
In studies of antagonism, a control concentration-response curve to carbachol was generated by cumulative addition of carbachol to the bladder strip (i.e., stepwise increase of the agonist concentration until the maximal contractile response was reached), followed by washing out and a resting period of at least 15 min. before a fix concentration of the test compound (antagonist) was added to the organ-bath. After 60 min. of incubation, a second cumulative concentration-response curve to carbachol was generated. Responses were expressed as percent of the maximal response to carbachol. EC50 -values for carbachol in the absence (control) and presence of antagonist were graphically derived and dose ratios (r) were calculated. Dissociation constants, Kb, for the antagonists were then calculated using the following equation (1), where [A] is the concentration of test compound.

[2] = system: ileum (longitudinal muscle); test: Functional in vitro study: muscarinic (agonistic) activity on ileal preparations; conditions: Cavia porcellus, guinea pig ileum, read-out: agonistic effect on ileum in relation to maximal carbachol response (Emax)
Procedure: as §1
as §2, with “In the latter case, the preparations were washed and allowed to rest between each concentration of agonist.” left out, “determined. […]” for “determined.”

[3] = read-out: Kb (dissociation constant for the antagonist)

Structure (SMILES) | Kb [1, 3] [nM] | Kb [1] [nM] | further results
Cc1ccc(C2(O)CN3CCC2CC3)o1 (stereo not drawn) [Example 4, 3-(5-Methyl-2-furyl)quinuclidin-3-ol] | – | 1200 | –
Cc1ccc(C2(O)CN3CCC2CC3)s1 (stereo not drawn) [Example 6, 3-(5-Methylthienyl)quinuclidin-3-ol] | – | 23000 | –
OC1(c2occc2Br)CN2CCC1CC2 (stereo not drawn) [Example 7, 3-(3-Bromo-2-furyl)quinuclidin-3-ol] | – | – | Kb ([1]; read-out: Kb (dissociation constant for the antagonist), guinea pig urinary bladder strip, antagonism of carbachol, 60 min incubation, Kb=[A]/r-1): 11000 nM
CCc1ccc(C2(O)CN3CCC2CC3)o1 (stereo not drawn) [Example 8, 3-(5-Ethyl-2-furyl)quinuclidin-3-ol] | – | 6700 | –
C1=C(c2occc2-c2ccccc2)C2CCN1CC2 [Example 27, 3-(3-Phenylfuran-2-yl)quinuclidin-2-ene] | 2.7 | – | –
C1=C(c2ccc(-c3ccccc3)o2)C2CCN1CC2 [Example 29, 3-(5-Phenylfuran-2-yl)quinuclidin-2-ene] | 1020 | – | –

The next lines start with results.

Kb [1, 3] [nM] | Structure (SMILES) | Kb [1] [nM] | further results
61 | Cc1ccc(C2=CN3CCC2CC3)o1 [Example 17, 3-(5-Methyl-2-furyl)quinuclidin-2-ene] | – | –
320 | Cc1ccc(C2=CN3CCC2CC3)s1 [Example 19, 3-(5-methyl-2-thienyl)quinuclidin-2-ene] | – | Emax at 500 µM [2]: 10%
31 | CCc1ccc(C2=CN3CCC2CC3)o1 [Example 21, 3-(5-Ethyl-2-furyl)quinuclidin-2-ene] | – | –
2600 | COC(=O)c1ccc(C2=CN3CCC2CC3)o1 [Example 31, 3-(2-Methoxycarbonyl-5-furyl)-quinuclidin-2-ene] | – | Emax at 500 µM [2]: 21%

Source: patent US5599937A, “Heteroaromatic quinuclidinenes, their use and preparation” (Pharmacia AB, priority 1992, dated 1997)
